Results: ChEMBL document CHEMBL3862012, “Methylene versus carbonyl bridge in the structure of new tubulin polymerization inhibitors with tricyclic A-rings” (Bioorg Med Chem, 2016)

Key:
Assay type in all cases: functional
[1] = Cytotoxicity against human K562 cells assessed as growth inhibition after 48 hrs by SRB assay; conditions: K562, 48 h
[2] = Cytotoxicity against human SK-MEL-5 cells assessed as growth inhibition at 10 uM after 48 hrs by SRB assay relative to control; conditions: SK-MEL-5, 48 h, read-out: GI
[3] = Cytotoxicity against human SW620 cells assessed as growth inhibition after 48 hrs by SRB assay; conditions: SW-620, 48 h
[4] = Cytotoxicity against human HCC2998 cells assessed as growth inhibition after 48 hrs by SRB assay; conditions: HCC 2998, 48 h
[5] = Cytotoxicity against human SR cells assessed as growth inhibition after 48 hrs by SRB assay
[6] = Cytotoxicity against human IGROV1 cells assessed as growth inhibition after 48 hrs by SRB assay; conditions: IGROV-1, 48 h
[7] = Cytotoxicity against human MDA-MB-435 cells assessed as growth inhibition after 48 hrs by SRB assay; conditions: MDA-MB-435, 48 h
[8] = Cytotoxicity against human SK-MEL-28 cells assessed as growth inhibition after 48 hrs by SRB assay; conditions: SK-MEL-28, 48 h
[9] = Cytotoxicity against human UACC62 cells assessed as growth inhibition at 10 uM after 48 hrs by SRB assay relative to control; conditions: UACC-62, 48 h, read-out: GI
[10] = Cytotoxicity against human HCC2998 cells assessed as growth inhibition at 10 uM after 48 hrs by SRB assay relative to control; conditions: HCC 2998, 48 h, read-out: GI
[11] = Cytotoxicity against human MCF7 cells assessed as growth inhibition after 48 hrs by SRB assay; conditions: MCF7, 48 h
[12] = Cytotoxicity against human SN12C cells assessed as growth inhibition at 10 uM after 48 hrs by SRB assay relative to control; conditions: read-out: GI
[13] = Cytotoxicity against human M14 cells assessed as growth inhibition after 48 hrs by SRB assay; conditions: M14, 48 h
[14] = Cytotoxicity against human HCT15 cells assessed as growth inhibition after 48 hrs by SRB assay; conditions: HCT-15, 48 h
[15] = Cytotoxicity against human KM12 cells assessed as growth inhibition after 48 hrs by SRB assay; conditions: KM12, 48 h
[16] = Cytotoxicity against human MDA-MB-468 cells assessed as growth inhibition after 48 hrs by SRB assay; conditions: MDA-MB-468, 48 h
[17] = Cytotoxicity against human A549 cells assessed as growth inhibition after 48 hrs by SRB assay; conditions: A549, 48 h
[18] = Cytotoxicity against human LOXIMVI cells assessed as growth inhibition after 48 hrs by SRB assay; conditions: LOX IMVI
[19] = Cytotoxicity against human MOLT4 cells assessed as growth inhibition after 48 hrs by SRB assay; conditions: MOLT-4, 48 h
[20] = Cytotoxicity against human RXF393 cells assessed as growth inhibition after 48 hrs by SRB assay; conditions: RXF 393, 48 h
[21] = Cytotoxicity against human RPMI8226 cells assessed as growth inhibition after 48 hrs by SRB assay; conditions: RPMI-8226, 48 h
[22] = Cytotoxicity against human COLO205 cells assessed as growth inhibition after 48 hrs by SRB assay; conditions: COLO 205, 48 h
[23] = Cytotoxicity against human ACHN cells assessed as growth inhibition after 48 hrs by SRB assay
[24] = Cytotoxicity against human CCRF-CEM cells assessed as growth inhibition after 48 hrs by SRB assay
[25] = Cytotoxicity against human MALME-3M cells assessed as growth inhibition after 48 hrs by SRB assay
[26] = Cytotoxicity against human NCI-H522 cells assessed as growth inhibition after 48 hrs by SRB assay; conditions: NCI-H522, 48 h
[27] = Cytotoxicity against human SK-MEL-2 cells assessed as growth inhibition after 48 hrs by SRB assay; conditions: SK-MEL-2, 48 h
[28] = Cytotoxicity against human SF295 cells assessed as growth inhibition after 48 hrs by SRB assay; conditions: SF-295, 48 h
[29] = Cytotoxicity against human BT549 cells assessed as growth inhibition after 48 hrs by SRB assay; conditions: BT-549, 48 h
[30] = Cytotoxicity against human OVCAR8 cells assessed as growth inhibition after 48 hrs by SRB assay; conditions: OVCAR-8, 48 h
[31] = Cytotoxicity against human HL-60(TB) cells assessed as growth inhibition after 48 hrs by SRB assay; conditions: HL-60, 48 h
[32] = Cytotoxicity against human EKVX cells assessed as growth inhibition after 48 hrs by SRB assay
[33] = Cytotoxicity against human Caki1 cells assessed as growth inhibition after 48 hrs by SRB assay; conditions: CAKI-1, 48 h
[34] = Cytotoxicity against human Hs 578T cells assessed as growth inhibition after 48 hrs by SRB assay
[35] = Cytotoxicity against human NCI-H460 cells assessed as growth inhibition after 48 hrs by SRB assay; conditions: NCI-H460, 48 h

| SMILES | GI50 [1] [µM] | GI50 [3] [µM] | GI50 [4] [µM] | GI50 [5] [µM] | GI50 [6] [µM] | GI50 [7] [µM] | GI50 [11] [µM] | GI50 [13] [µM] | GI50 [14] [µM] | GI50 [16] [µM] | GI50 [17] [µM] | GI50 [18] [µM] | GI50 [19] [µM] | GI50 [20] [µM] | GI50 [21] [µM] | GI50 [22] [µM] | GI50 [23] [µM] | GI50 [24] [µM] | GI50 [26] [µM] | GI50 [28] [µM] | also measured |
| --- | --- | --- | --- | --- | --- | --- | --- | --- | --- | --- | --- | --- | --- | --- | --- | --- | --- | --- | --- | --- | --- |
| COc1ccc(CN2c3ccccc3Sc3ccccc32)c(F)c1 | 0.038 | 0.036 | 5.06 | 0.06 | 0.046 | 0.025 | 0.033 | 0.038 | 0.038 | – | – | – | – | – | – | – | – | – | – | – | inhibition of growth at 10 µM [2]: 74%; GI50 [8]: 5.05 µM; inhibition of growth at 10 µM [9]: 67%; inhibition of growth at 10 µM [10]: 38%; inhibition of growth at 10 µM [12]: 53%; GI50 [15]: 0.043 µM |
| COc1ccc(CN2c3ccccc3Sc3ccccc32)c(C(F)(F)F)c1 | 0.395 | 0.443 | 2 | 0.483 | 3.43 | 0.396 | 0.349 | 0.446 | 0.489 | 0.275 | 0.807 | 0.832 | 0.288 | 0.38 | 3 | 0.64 | 0.666 | 0.454 | 0.314 | 0.32 | GI50 [25]: 21 µM; GI50 [27]: 1.18 µM; GI50 [29]: 3.12 µM; GI50 [30]: 2.22 µM; GI50 [31]: 0.412 µM; GI50 [32]: 1.2 µM; GI50 [33]: 1.53 µM; GI50 [34]: 0.877 µM; GI50 [35]: 0.456 µM |
| COc1ccc(CN2c3ccccc3Sc3ccccc32)cc1O | 0.365 | 0.504 | 0.422 | 0.407 | 1.93 | 0.234 | 0.355 | 0.383 | 0.369 | 0.531 | 0.471 | 0.71 | 0.642 | 0.338 | 0.42 | 0.789 | 1.56 | 0.411 | 0.241 | 0.225 | GI50 [25]: 12.2 µM; GI50 [8]: 14.4 µM; GI50 [27]: 0.333 µM; GI50 [29]: 0.773 µM; GI50 [30]: 0.508 µM; GI50 [31]: 0.257 µM; GI50 [32]: 0.378 µM; GI50 [33]: 0.472 µM; GI50 [34]: 0.933 µM; GI50 [35]: 0.444 µM |
| COc1ccc(CN2c3ccccc3CCc3ccccc32)cc1F | 0.402 | 0.386 | 8.9 | 0.463 | 1.57 | 0.187 | 0.352 | 0.354 | 0.428 | 0.399 | 0.732 | 0.725 | 0.554 | 0.312 | 0.644 | 0.335 | 0.604 | 0.515 | 0.609 | 0.333 | inhibition of growth at 10 µM [2]: 80%; GI50 [8]: 0.82 µM; inhibition of growth at 10 µM [9]: 75%; inhibition of growth at 10 µM [10]: 69%; GI50 [29]: 0.746 µM; GI50 [30]: 0.88 µM; GI50 [31]: 0.241 µM; GI50 [32]: 1.55 µM; inhibition of growth at 10 µM [12]: 61%; GI50 [33]: 0.549 µM; GI50 [34]: 0.487 µM; GI50 [35]: 0.419 µM; GI50 [15]: 0.387 µM |
| COc1ccc(CN2c3ccccc3Sc3ccccc32)cc1F | 0.369 | 0.384 | 1.13 | 0.354 | 1.07 | 0.189 | 0.365 | 0.317 | 0.437 | 0.309 | 0.757 | 0.722 | 0.468 | 0.304 | 0.482 | 0.299 | 1.22 | 0.428 | 0.3 | 0.333 | inhibition of growth at 10 µM [2]: 78%; inhibition of growth at 10 µM [9]: 72%; GI50 [27]: 0.405 µM; inhibition of growth at 10 µM [10]: 82%; GI50 [29]: 0.562 µM; GI50 [30]: 0.663 µM; GI50 [31]: 0.262 µM; GI50 [32]: 0.612 µM; inhibition of growth at 10 µM [12]: 55%; GI50 [33]: 0.386 µM; GI50 [34]: 0.459 µM; GI50 [35]: 0.389 µM; GI50 [15]: 0.419 µM |
